Results on 20 compounds are retold here after patent US9562085B2, “Antimicrobial peptide” (priority 2013, dated 2017).

The subject of this assay is S. aureus JAR. It is filed as cell-based. The settings on record: JAR, 2 h. As to the method:
S. aureus JAR is described in Campoccia et al. (Int. J. Artif. Organs, 2008 September; 31(9):841-7).
For the in vitro killing assay with P10 variants, S. aureus JAR ([…] CFU/ml) were incubated for 2 hours at 37° C. with various concentrations of the peptides in PBS or in PBS/human plasma (1/1, v/v). […] The LC99.9 is the average value of two independent experiments.

Non-standard residues stand in square brackets, D forms with d. Residues, ends and D or L forms follow the SMILES beside them. *: point of attachment. Decanoyl = CCCCCCCCCC(=O)* Bounds are passed on as bounds.

As to “Ac-LAREYKKIVEKLKRWLRQLLRTLR-NH2 [Peptide 1302-46, JLAREYKKIVEKLKRWLRQLLRTLRB]”, the “LC99.9 (μM) (50% plasma)” value amounted to 102.4 µM and the “LC99.9 (μM) (PBS)” value is 1.6 µM.

Turning to `CC[C@H](C)[C@H](NC(=O)[C@H](CCCCN)NC(=O)[C@H](CCCCN)NC(=O)[C@H](Cc1ccc(O)cc1)NC(=O)[C@H](CCC(=O)O)NC(=O)[C@H](CCCNC(=N)N)NC(=O)[C@H](C)NC(=O)[C@@H](CC(C)C)NC(C)=O)C(=O)N[C@H](C(=O)N[C@@H](CCC(=O)O)C(=O)N[C@@H](CCCCN)C(=O)N[C@@H](CC(C)C)C(=O)N[C@@H](CCCCN)C(=O)N[C@@H](CCCNC(=N)N)C(=O)N[C@@H](Cc1c[nH]c2ccccc12)C(=O)N[C@@H](CC(C)C)C(=O)N[C@@H](CCCNC(=N)N)C(=O)N[C@@H](CCC(N)=O)C(=O)N[C@H](C(=O)N[C@@H](CC(C)C)C(=O)N[C@@H](CCCNC(=N)N)C(=O)N[C@H](C(=O)N[C@@H](CC(C)C)C(=O)N[C@@H](CCCNC(=N)N)C(N)=O)[C@@H](C)O)C(C)C)C(C)C` [Peptide 1301-1, JlAREYKKIVEKLKRWLRQVLRTLRB] (Ac-[dL]AREYKKIVEKLKRWLRQVLRTLR-NH2), the “LC99.9 (μM) (50% plasma)” value amounted to 38.4 µM and the “LC99.9 (μM) (PBS)” value stood at 0.6 µM.

With “Ac-EYKKIVEKLKRWLRQVLR-NH2 [Peptide 1302-61, JEYKKIVEKLKRWLRQVLRB]”, the “LC99.9 (μM) (50% plasma)” value was 102.4 µM and the “LC99.9 (μM) (PBS)” value amounted to 2.4 µM.

In the case of “Ac-LQREYKKIVEKLKRWLRQVLRTLR-NH2 [Peptide 1302-22, JLQREYKKIVEKLKRWLRQVLRTLRB]”, the “LC99.9 (μM) (50% plasma)” value was found to be 76.8 µM and the “LC99.9 (μM) (PBS)” value turned out to be 1.6 µM.

Turning to “Ac-LAREYKKPVEKLKRWLPQVLRTLR-NH2 [Peptide 1302-16, JLAREYKKPVEKLKRWLPQVLRTLRB]”, the “LC99.9 (μM) (50% plasma)” value came out at 102.4 µM and the “LC99.9 (μM) (PBS)” value is above 3.2 µM.

Turning to “Ac-LAREYKKIVEKLKRWLRNVLRTLR-NH2 [Peptide 1302-42, JLAREYKKIVEKLKRWLRNVLRTLRB]”, the “LC99.9 (μM) (50% plasma)” value is 76.8 µM and the “LC99.9 (μM) (PBS)” value amounted to 1.6 µM.

For `CC[C@H](C)[C@H](NC(=O)[C@H](CCCCN)NC(=O)[C@H](CCCCN)NC(=O)[C@@H](Cc1ccc(O)cc1)NC(=O)[C@H](CCC(=O)O)NC(=O)[C@H](CCCNC(=N)N)NC(=O)[C@H](C)NC(=O)[C@H](CC(C)C)NC(C)=O)C(=O)N[C@H](C(=O)N[C@@H](CCC(=O)O)C(=O)N[C@@H](CCCCN)C(=O)N[C@@H](CC(C)C)C(=O)N[C@@H](CCCCN)C(=O)N[C@@H](CCCNC(=N)N)C(=O)N[C@@H](Cc1c[nH]c2ccccc12)C(=O)N[C@@H](CC(C)C)C(=O)N[C@@H](CCCNC(=N)N)C(=O)N[C@@H](CCC(N)=O)C(=O)N[C@H](C(=O)N[C@@H](CC(C)C)C(=O)N[C@@H](CCCNC(=N)N)C(=O)N[C@H](C(=O)N[C@@H](CC(C)C)C(=O)N[C@@H](CCCNC(=N)N)C(N)=O)[C@@H](C)O)C(C)C)C(C)C` [Peptide 1301-5, JLAREyKKIVEKLKRWLRQVLRTLRB] (Ac-LARE[dY]KKIVEKLKRWLRQVLRTLR-NH2), the “LC99.9 (μM) (50% plasma)” value was found to be 38.4 µM and the “LC99.9 (μM) (PBS)” value amounted to 0.6 µM.

For the compound “Ac-LAREYKKIVPKLKRWLRQVPRTLR-NH2 [Peptide 1302-15, JLAREYKKIVPKLKRWLRQVPRTLRB]”, the “LC99.9 (μM) (50% plasma)” value was determined as 76.8 µM and the “LC99.9 (μM) (PBS)” value is above 3.2 µM.

Regarding `CC[C@H](C)[C@H](NC(=O)[C@H](CCCCN)NC(=O)[C@H](CCCCN)NC(=O)[C@H](Cc1ccc(O)cc1)NC(=O)[C@H](CCC(=O)O)NC(=O)[C@H](CCCNC(=N)N)NC(=O)[C@H](C)NC(=O)[C@H](CC(C)C)NC(C)=O)C(=O)N[C@H](C(=O)N[C@@H](CCC(=O)O)C(=O)N[C@@H](CCCCN)C(=O)N[C@@H](CC(C)C)C(=O)N[C@H](CCCCN)C(=O)N[C@@H](CCCNC(=N)N)C(=O)N[C@@H](Cc1c[nH]c2ccccc12)C(=O)N[C@@H](CC(C)C)C(=O)N[C@@H](CCCNC(=N)N)C(=O)N[C@@H](CCC(N)=O)C(=O)N[C@H](C(=O)N[C@@H](CC(C)C)C(=O)N[C@@H](CCCNC(=N)N)C(=O)N[C@H](C(=O)N[C@@H](CC(C)C)C(=O)N[C@@H](CCCNC(=N)N)C(N)=O)[C@@H](C)O)C(C)C)C(C)C` [Peptide 1301-13, JLAREYKKIVEKLkRWLRQVLRTLRB] (Ac-LAREYKKIVEKL[dK]RWLRQVLRTLR-NH2), the “LC99.9 (μM) (50% plasma)” value amounted to 38.4 µM and the “LC99.9 (μM) (PBS)” value was 0.6 µM.

Take “Ac-REYKKIVEKLKRWLRQVLRTLR-NH2 [Peptide 1302-56, JREYKKIVEKLKRWLRQVLRTLRB]”: the “LC99.9 (μM) (50% plasma)” value amounted to 51.2 µM and the “LC99.9 (μM) (PBS)” value stood at 1.6 µM.

Turning to “Ac-LAREYKKIVEKLKRWLRQVLRQLR-NH2 [Peptide 1302-52, JLAREYKKIVEKLKRWLRQVLRQLRB]”, the “LC99.9 (μM) (50% plasma)” value amounted to 76.8 µM and the “LC99.9 (μM) (PBS)” value is 1.6 µM.

With “Ac-LAREYKKIVEKAKRWLRQVLRTLR-NH2 [Peptide 1302-36, JLAREYKKIVEKAKRWLRQVLRTLRB]”, the “LC99.9 (μM) (50% plasma)” value came out at 76.8 µM and the “LC99.9 (μM) (PBS)” value is 3.2 µM.

Regarding “Ac-LAREYKKIVERLKRWLRQVLRTLR-NH2 [Peptide 1302-31, JLAREYKKIVERLKRWLRQVLRTLRB]”, the “LC99.9 (μM) (50% plasma)” value was determined as 102.4 µM and the “LC99.9 (μM) (PBS)” value turned out to be 3.2 µM.

In the case of “Ac-LAREYKKIVEKLKRWLRTVLRTLR-NH2 [Peptide 1302-45, JLAREYKKIVEKLKRWLRTVLRTLRB]”, the “LC99.9 (μM) (50% plasma)” value was determined as 76.8 µM and the “LC99.9 (μM) (PBS)” value stood at 1.6 µM.

Take “Ac-LAREYKKIVEKLKRWLRAVLRTLR-NH2 [Peptide 1302-43, JLAREYKKIVEKLKRWLRAVLRTLRB]”: the “LC99.9 (μM) (50% plasma)” value is 102.4 µM and the “LC99.9 (μM) (PBS)” value turned out to be 1.6 µM.

Take “Ac-LAREYKKIVEKLKHWLRQVLRTLR-NH2 [Peptide 1302-39, JLAREYKKIVEKLKHWLRQVLRTLRB]”: the “LC99.9 (μM) (50% plasma)” value was 102.4 µM and the “LC99.9 (μM) (PBS)” value is 3.2 µM.

For the compound `CC[C@H](C)[C@H](NC(=O)[C@H](CCCCN)NC(=O)[C@H](CCCCN)NC(=O)[C@H](Cc1ccc(O)cc1)NC(=O)[C@H](CCC(=O)O)NC(=O)[C@H](CCCNC(=N)N)NC(=O)[C@H](C)NC(=O)[C@H](CC(C)C)NC(C)=O)C(=O)N[C@H](C(=O)N[C@@H](CCC(=O)O)C(=O)N[C@@H](CCCCN)C(=O)N[C@@H](CC(C)C)C(=O)N[C@@H](CCCCN)C(=O)N[C@@H](CCCNC(=N)N)C(=O)N[C@@H](Cc1c[nH]c2ccccc12)C(=O)N[C@@H](CC(C)C)C(=O)N[C@H](CCCNC(=N)N)C(=O)N[C@@H](CCC(N)=O)C(=O)N[C@H](C(=O)N[C@@H](CC(C)C)C(=O)N[C@@H](CCCNC(=N)N)C(=O)N[C@H](C(=O)N[C@@H](CC(C)C)C(=O)N[C@@H](CCCNC(=N)N)C(N)=O)[C@@H](C)O)C(C)C)C(C)C` [Peptide 1301-17, JLAREYKKIVEKLKRWLrQVLRTLRB] (Ac-LAREYKKIVEKLKRWL[dR]QVLRTLR-NH2), the “LC99.9 (μM) (50% plasma)” value is 38.4 µM and the “LC99.9 (μM) (PBS)” value was determined as 0.6 µM.

`CC[C@H](C)[C@H](NC(=O)[C@H](CCCCN)NC(=O)[C@H](CCCCN)NC(=O)[C@H](Cc1ccc(O)cc1)NC(=O)[C@H](CCC(=O)O)NC(=O)[C@H](CCCNC(=N)N)NC(=O)[C@H](C)NC(=O)[C@H](CC(C)C)NC(C)=O)C(=O)N[C@H](C(=O)N[C@@H](CCC(=O)O)C(=O)N[C@@H](CCCCN)C(=O)N[C@@H](CC(C)C)C(=O)N[C@@H](CCCCN)C(=O)N[C@@H](CCCNC(=N)N)C(=O)N[C@@H](Cc1c[nH]c2ccccc12)C(=O)N[C@@H](CC(C)C)C(=O)N[C@@H](CCCNC(=N)N)C(=O)N[C@@H](CCC(N)=O)C(=O)N[C@H](C(=O)N[C@@H](CC(C)C)C(=O)N[C@@H](CCCNC(=N)N)C(=O)N[C@H](C(=O)N[C@H](CC(C)C)C(=O)N[C@@H](CCCNC(=N)N)C(N)=O)[C@@H](C)O)C(C)C)C(C)C` [Peptide 1301-23, JLAREYKKIVEKLKRWLRQVLRTlRB] (Ac-LAREYKKIVEKLKRWLRQVLRT[dL]R-NH2): the “LC99.9 (μM) (50% plasma)” value worked out at 32.0 µM and the “LC99.9 (μM) (PBS)” value was determined as 0.4 µM.

On to `CCCCCCCCCC(=O)N[C@@H](CC(C)C)C(=O)N[C@@H](C)C(=O)N[C@@H](CCCNC(=N)N)C(=O)N[C@@H](CCC(=O)O)C(=O)N[C@@H](Cc1ccc(O)cc1)C(=O)N[C@@H](CCCCN)C(=O)N[C@@H](CCCCN)C(=O)N[C@H](C(=O)N[C@H](C(=O)N[C@@H](CCC(=O)O)C(=O)N[C@@H](CCCCN)C(=O)N[C@@H](CC(C)C)C(=O)N[C@@H](CCCCN)C(=O)N[C@@H](CCCNC(=N)N)C(=O)N[C@@H](Cc1c[nH]c2ccccc12)C(=O)N[C@@H](CC(C)C)C(=O)N[C@@H](CCCNC(=N)N)C(=O)N[C@@H](CCC(N)=O)C(=O)N[C@H](C(=O)N[C@@H](CC(C)C)C(=O)N[C@@H](CCCNC(=N)N)C(=O)N[C@H](C(=O)N[C@@H](CC(C)C)C(=O)N[C@@H](CCCNC(=N)N)C(N)=O)[C@@H](C)O)C(C)C)C(C)C)[C@@H](C)CC` [Peptide 1302-9, jLAREYKKIVEKLKRWLRQVLRTLRB] (Decanoyl-LAREYKKIVEKLKRWLRQVLRTLR-NH2), for which the “LC99.9 (μM) (50% plasma)” value is above 102.4 µM and the “LC99.9 (μM) (PBS)” value is 1.6 µM.

As to `CC[C@H](C)[C@H](NC(=O)[C@H](CCCCN)NC(=O)[C@H](CCCCN)NC(=O)[C@H](Cc1ccc(O)cc1)NC(=O)[C@H](CCC(=O)O)NC(=O)[C@H](CCCNC(=N)N)NC(=O)[C@H](C)NC(=O)[C@H](CC(C)C)NC(C)=O)C(=O)N[C@H](C(=O)N[C@@H](CCC(=O)O)C(=O)N[C@@H](CCCCN)C(=O)N[C@H](CC(C)C)C(=O)N[C@@H](CCCCN)C(=O)N[C@@H](CCCNC(=N)N)C(=O)N[C@@H](Cc1c[nH]c2ccccc12)C(=O)N[C@@H](CC(C)C)C(=O)N[C@@H](CCCNC(=N)N)C(=O)N[C@@H](CCC(N)=O)C(=O)N[C@H](C(=O)N[C@@H](CC(C)C)C(=O)N[C@@H](CCCNC(=N)N)C(=O)N[C@H](C(=O)N[C@@H](CC(C)C)C(=O)N[C@@H](CCCNC(=N)N)C(N)=O)[C@@H](C)O)C(C)C)C(C)C` [Peptide 1301-12, JLAREYKKIVEKlKRWLRQVLRTLRB] (Ac-LAREYKKIVEK[dL]KRWLRQVLRTLR-NH2), the “LC99.9 (μM) (50% plasma)” value is 32.0 µM and the “LC99.9 (μM) (PBS)” value amounted to 0.6 µM.
